Measured values from PubChem BioAssay AID1745844 (Carcinogenic Potency Database (CPDB), 2022).
The source made the active and inactive calls. The rule behind the calls is not given here.

System: rodent lifetime carcinogenesis bioassay, tumor incidence TD50
Assay: chronic cancer bioassays in animals – CPDB, compiled studies (AID 1745844)

C=COC(C)=O
TD50 (mouse, strain Charles River CD1, males, inhaled, site: lung, lesion: squamous-cell carcinoma, dosed 104 weeks, study length 104 weeks): 32000 mg/kg/day
TD50 (mouse, strain Swiss, females, in drinking water, site: Zymbal's gland, lesion: carcinoma, dosed 78 weeks, study length 151 weeks): 36000 mg/kg/day
TD50 (mouse, strain Swiss, females, in drinking water, site: any site (literature study), lesion: benign tumor, dosed 78 weeks, study length 151 weeks): 2030 mg/kg/day
TD50 (mouse, strain Swiss, females, in drinking water, site: any site (literature study), lesion: malignant tumor, dosed 78 weeks, study length 151 weeks): 3440 mg/kg/day
TD50 (mouse, strain Swiss, females, in drinking water, site: esophagus, lesion: acanthoma, dosed 78 weeks, study length 151 weeks): 36000 mg/kg/day
TD50 (mouse, strain Swiss, females, in drinking water, site: esophagus, lesion: squamous-cell carcinoma, dosed 78 weeks, study length 151 weeks): 5640 mg/kg/day
TD50 (mouse, strain Swiss, females, in drinking water, site: forestomach, lesion: acanthoma, dosed 78 weeks, study length 151 weeks): 6850 mg/kg/day
TD50 (mouse, strain Swiss, females, in drinking water, site: forestomach, lesion: squamous-cell carcinoma, dosed 78 weeks, study length 151 weeks): 11700 mg/kg/day
TD50 (mouse, strain Swiss, females, in drinking water, site: lung, lesion: adenocarcinoma, dosed 78 weeks, study length 151 weeks): 29900 mg/kg/day
TD50 (mouse, strain Swiss, females, in drinking water, site: lung, lesion: adenoma, dosed 78 weeks, study length 151 weeks): 11700 mg/kg/day
TD50 (mouse, strain Swiss, females, in drinking water, site: lung, lesion: several types, types named in the paper, dosed 78 weeks, study length 151 weeks): 7640 mg/kg/day
TD50 (mouse, strain Swiss, females, in drinking water, site: oral cavity, lesion: squamous-cell carcinoma, dosed 78 weeks, study length 151 weeks): 36000 mg/kg/day
TD50 (mouse, strain Swiss, females, in drinking water, site: stomach, lesion: adenocarcinoma, dosed 78 weeks, study length 151 weeks): 36000 mg/kg/day
TD50 (mouse, strain Swiss, females, in drinking water, site: tongue, lesion: squamous-cell carcinoma, dosed 78 weeks, study length 151 weeks): 8760 mg/kg/day
TD50 (mouse, strain Swiss, females, in drinking water, site: uterus, lesion: adenocarcinoma, dosed 78 weeks, study length 151 weeks): 5570 mg/kg/day
TD50 (mouse, strain Swiss, females, in drinking water, site: uterus, lesion: leiomyoma, dosed 78 weeks, study length 151 weeks): 26100 mg/kg/day
TD50 (mouse, strain Swiss, females, in drinking water, site: uterus, lesion: leiomyosarcoma, dosed 78 weeks, study length 151 weeks): 26100 mg/kg/day
TD50 (mouse, strain Swiss, females, in drinking water, site: uterus, lesion: malignant tumor, dosed 78 weeks, study length 151 weeks): 3920 mg/kg/day
TD50 (mouse, strain Swiss, males, in drinking water, site: any site (literature study), lesion: benign tumor, dosed 78 weeks, study length 135 weeks): 6040 mg/kg/day
TD50 (mouse, strain Swiss, males, in drinking water, site: any site (literature study), lesion: malignant tumor, dosed 78 weeks, study length 135 weeks): 552 mg/kg/day
TD50 (mouse, strain Swiss, males, in drinking water, site: forestomach, lesion: acanthoma, dosed 78 weeks, study length 135 weeks): 9330 mg/kg/day
TD50 (mouse, strain Swiss, males, in drinking water, site: lung, lesion: adenocarcinoma, dosed 78 weeks, study length 135 weeks): 68200 mg/kg/day
TD50 (mouse, strain Swiss, males, in drinking water, site: lung, lesion: adenoma, dosed 78 weeks, study length 135 weeks): 5750 mg/kg/day
TD50 (mouse, strain Swiss, males, in drinking water, site: lung, lesion: several types, types named in the paper, dosed 78 weeks, study length 135 weeks): 28000 mg/kg/day
TD50 (mouse, strain Swiss, males, in drinking water, site: oral cavity, lesion: squamous-cell carcinoma, dosed 78 weeks, study length 135 weeks): 9330 mg/kg/day
TD50 (mouse, strain Swiss, males, in drinking water, site: stomach, lesion: adenocarcinoma, dosed 78 weeks, study length 135 weeks): 9330 mg/kg/day
TD50 (mouse, strain Swiss, males, in drinking water, site: tongue, lesion: squamous-cell carcinoma, dosed 78 weeks, study length 135 weeks): 9330 mg/kg/day
TD50 (rat, strain Charles River CD (Sprague-Dawley), females, inhaled, site: larynx, lesion: squamous-cell carcinoma, dosed 104 weeks, study length 104 weeks): 9050 mg/kg/day
TD50 (rat, strain Charles River CD (Sprague-Dawley), females, inhaled, site: nose, lesion: squamous-cell carcinoma, dosed 104 weeks, study length 104 weeks): 2220 mg/kg/day
TD50 (rat, strain Charles River CD (Sprague-Dawley), males, inhaled, site: nose, lesion: benign tumor, dosed 104 weeks, study length 104 weeks): 1240 mg/kg/day
TD50 (rat, strain Charles River CD (Sprague-Dawley), males, inhaled, site: nose, lesion: carcinoma, in situ, dosed 104 weeks, study length 104 weeks): 6310 mg/kg/day
TD50 (rat, strain Charles River CD (Sprague-Dawley), males, inhaled, site: nose, lesion: malignant tumor, dosed 104 weeks, study length 104 weeks): 2080 mg/kg/day
TD50 (rat, strain Charles River CD (Sprague-Dawley), males, inhaled, site: nose, lesion: papilloma, inverted, dosed 104 weeks, study length 104 weeks): 1550 mg/kg/day
TD50 (rat, strain Charles River CD (Sprague-Dawley), males, inhaled, site: nose, lesion: several types, types named in the paper, dosed 104 weeks, study length 104 weeks): 758 mg/kg/day
TD50 (rat, strain Charles River CD (Sprague-Dawley), males, inhaled, site: nose, lesion: squamous-cell carcinoma, dosed 104 weeks, study length 104 weeks): 3140 mg/kg/day
TD50 (rat, strain Fischer 344, females, in drinking water, site: liver, lesion: neoplastic nodule, dosed 100 weeks, study length 130 weeks): 488 mg/kg/day
TD50 (rat, strain Fischer 344, females, in drinking water, site: thyroid gland, lesion: c-cell adenoma, dosed 100 weeks, study length 130 weeks): 420 mg/kg/day
TD50 (rat, strain Fischer 344, females, in drinking water, site: thyroid gland, lesion: c-cell carcinoma, dosed 100 weeks, study length 130 weeks): 25500 mg/kg/day
TD50 (rat, strain Fischer 344, females, in drinking water, site: uterus, lesion: adenocarcinoma, dosed 100 weeks, study length 130 weeks): 494 mg/kg/day
TD50 (rat, strain Fischer 344, males, in drinking water, site: any site (literature study), lesion: several types, types named in the paper, dosed 100 weeks, study length 130 weeks): 57.7 mg/kg/day
TD50 (rat, strain Fischer 344, males, in drinking water, site: liver, lesion: neoplastic nodule, dosed 100 weeks, study length 130 weeks): 132 mg/kg/day
carcinogen call (rat, strain Fischer 344, males, in drinking water, site: thyroid gland, lesion: c-cell carcinoma, dosed 100 weeks, study length 130 weeks): positive

CC(=O)OC1CC(C)CCC1C(C)C (stereo not given) (tested in a mixture with another compound)
TD50 (mouse, strain CFLP, males, by gavage, site: any site (literature study), lesion: malignant tumor, dosed 80 weeks, study length 104 weeks): 112 mg/kg/day

NCCS(=O)(=O)O
carcinogen call (rat, strain Wistar, females, in feed, site: mammary gland, lesion: fibroadenoma, dosed 78 weeks, study length 78 weeks): negative (inactive)
carcinogen call (rat, strain Wistar, males, in feed, site: mammary gland, lesion: fibroadenoma, dosed 78 weeks, study length 78 weeks): negative (inactive)
